# Measured values from patent publication US20090012051A1, “EXTERNAL PREPARATION” (KYOWA HAKKO KOGYO CO., LTD., priority 2005, published 2009).
# Test: Solubility of Compound (I) in solvent components
# Type: physicochemical
smiles,measurement,setting,value
"COc1ccc(C(=O)Cc2c(Cl)cncc2Cl)c2c1OC1(CCCC1)O2 [Compound (I), 7-[2-(3,5-dichloro-4-pyridyl)-1-oxoethyl]-4-methoxy-spiro[1,3-benzodioxol-2,1′-cyclopentane]]",solubility,"oil or lipid, in isopropyl myristate",~10 mg/mL
same,solubility,"organic solvent or mixture, in benzyl alcohol",~100 mg/mL
same,solubility,"organic solvent or mixture, in propylene carbonate",~33 mg/mL
same,solubility,"organic solvent or mixture, in propylene glycol",~3 mg/mL
